Measured values reported in patent US7161032B2, “Sulfonamide derivatives, insecticides for agricultural and horticultural use, and usage thereof” (Nihon Nohyaku Co., Ltd., priority 2002, dated 2007).

Legend:
Format in all cases: in vivo
[1] = test system: Common Cutworm (Spodoptera litura); experiment: Insecticidal effect on common cutworm (Test Example 2): cabbage leaf piece immersed in 50 ppm liquid chemical; details: common cutworm (Spodoptera litura) second-instar larvae, 8 days after inoculation, 25° C.
Procedure: A piece of cabbage leaf (cultivar: Shikidori) was immersed for about 30 seconds in a liquid chemical prepared by diluting a preparation containing each compound listed in Table 1 or 2 as an active ingredient to adjust the concentration to 50 ppm. After air-dryness, it was placed in a plastic Petri dish with a diameter of 9 cm and inoculated with second-instar larvae of common cutworm, after which the dish was closed and then allowed to stand in a room thermostated at 25° C. Eight days after the inoculation, the dead and alive were counted. The mortality was calculated according to the following equation and the insecticidal effect was judged according to the criterion shown in Test Example 1. The test was carried out with triplicate groups of 10 insects. [formula]

[2] = test system: Diamond Back Moth (Plutella xylostella); experiment: Insecticidal effect on diamond back moth (Test Example 1): egg-bearing Chinese cabbage seedling immersed in 50 ppm liquid chemical
Procedure: Adult diamond back moths were released and allowed to oviposit on a Chinese cabbage seedling. Two days after the release, the seedling having the eggs deposited thereon was immersed for about 30 seconds in a liquid chemical prepared by diluting a preparation containing each compound listed in Table 1 or 2 as an active ingredient to adjust the concentration to 50 ppm. After air-dryness, it was allowed to stand in a room thermostated at 25° C. Six days after the immersion, the hatched insects were counted. The mortality was calculated according to the following equation and the insecticidal effect was judged according to the criterion shown below. The test was carried out with triplicate groups of 10 insects. [formula]

[3] = test system: Smaller Tea Tortrix (Adoxophyes sp.); experiment: Insecticidal effect on smaller tea tortrix (Test Example 3): tea leaves immersed in 50 ppm liquid chemical; details: smaller tea tortrix (Adoxophyes sp.) larvae, 8 days after inoculation, 25° C., humidity 70%
Procedure: Tea leaves were immersed for about 30 seconds in a liquid chemical prepared by diluting a preparation containing each compound listed in Table 1 or 2 as an active ingredient to adjust the concentration to 50 ppm. After air-dryness, the tea leaves were placed in a plastic Petri dish with a diameter of 9 cm and inoculated with larvae of smaller tea tortrix, after which the dish was allowed to stand in a room thermostated at 25° C. and having a humidity of 70%. Eight days after the inoculation, the dead and alive were counted and the insecticidal effect was judged according to the criterion shown in Test Example 1. The test was carried out with triplicate groups of 10 insects.

| SMILES | Insecticidal effect (mortality grade), Test Example 2 [1] | Insecticidal effect (mortality grade), Test Example 1 [2] | Insecticidal effect (mortality grade), Test Example 3 [3] |
| --- | --- | --- | --- |
| CCS(=O)(=O)CCNS(=O)(=O)CC(C)(C)NC(=O)c1c(I)cccc1C(=O)Nc1ccc(C(F)(F)C(F)(F)F)cc1C [1-309] | A (Mortality 100%) | A (Mortality 100%) | A (Mortality 100%) |
| Cc1cc(C(F)(C(F)(F)F)C(F)(F)F)ccc1NC(=O)c1cccc(I)c1C(=O)NC(C)CS(=O)(=O)NCc1ccccc1 (stereo not shown) [1-22] | A (Mortality 100%) | A (Mortality 100%) | A (Mortality 100%) |
| CCN(CC)S(=O)(=O)CC(C)(C)NC(=O)c1c(I)cccc1C(=O)Nc1ccc(C(C(F)(F)F)C(F)(F)F)cc1C [1-344] | A (Mortality 100%) | A (Mortality 100%) | A (Mortality 100%) |
| Cc1cc(C(F)(C(F)(F)F)C(F)(F)F)ccc1NC(=O)c1cccc(I)c1C(=O)N[C@@H](C)CS(=O)(=O)N[C@@H](C)CS(C)(=O)=O [1-149] | A (Mortality 100%) | A (Mortality 100%) | A (Mortality 100%) |
| CCCCNS(=O)(=O)CC(C)NC(=O)c1c(I)cccc1C(=O)Nc1ccc(C(F)(C(F)(F)F)C(F)(F)F)cc1C (stereo not shown) [1-12] | A (Mortality 100%) | A (Mortality 100%) | A (Mortality 100%) |
| CSCCNS(=O)(=O)CC(C)(C)NC(=O)c1c(I)cccc1C(=O)Nc1ccc(C(F)(C(F)(F)F)C(F)(F)F)cc1C [1-81] | A (Mortality 100%) | A (Mortality 100%) | A (Mortality 100%) |
| Cc1cc(C(F)(C(F)(F)F)C(F)(F)F)ccc1NC(=O)c1cccc(I)c1C(=O)NC(C)CS(=O)(=O)NCc1ccc(SC(F)(F)F)cc1 (stereo not shown) [1-38] | A (Mortality 100%) | A (Mortality 100%) | A (Mortality 100%) |
| CC[S+]([O-])CCNS(=O)(=O)CC(C)(C)NC(=O)c1c(I)cccc1C(=O)Nc1ccc(C(F)(C(F)(F)F)C(F)(F)F)cc1C (stereo not shown) [1-85] | A (Mortality 100%) | A (Mortality 100%) | A (Mortality 100%) |
| COc1cccc(CNS(=O)(=O)CC(C)NC(=O)c2c(I)cccc2C(=O)Nc2ccc(C(F)(C(F)(F)F)C(F)(F)F)cc2C)c1 (stereo not shown) [1-29] | A (Mortality 100%) | A (Mortality 100%) | A (Mortality 100%) |
| CCN(CC)S(=O)(=O)CC(C)NC(=O)c1c(Cl)cccc1C(=O)Nc1ccc(C(F)(C(F)(F)F)C(F)(F)F)cc1C (stereo not shown) [1-211] | A (Mortality 100%) | A (Mortality 100%) | A (Mortality 100%) |
| CCNS(=O)(=O)CC(C)NC(=O)c1c(I)cccc1C(=O)Nc1ccc(Cl)c(Cl)c1Cl (stereo not shown) [1-266] | C (Mortality 89–80%) | A (Mortality 100%) | E (Mortality less than 50%) |
| CCNS(=O)(=O)CC(C)NC(=O)c1c(I)cccc1C(=O)Nc1ccc(C(F)(C(F)(F)F)C(F)(F)F)cc1C (stereo not shown) [1-142] |  |  | A (Mortality 100%) |
